Experimental data from patent US20190119282A1, “IMIDAZOPYRIDAZINES USEFUL AS INHIBITORS OF THE PAR-2 SIGNALING PATHWAY” (Vertex Pharmaceuticals Incorporated, priority 2013, published 2019).

How the values were obtained:
[1] = biological target: T1, PAR2 (HT-29 cells, SLIGKV activation) (Homo sapiens, UniProt P55085); experiment: Ca FLIPR TETRA assay, ANTAGONIST mode, stimulation with 8 μM SLIGKV; format: cell-based; conditions: HT-29 cells, stimulation with 8 μM SLIGKV
T1 construct: host or cells: HT-29 cells
T1 sequence (P55085 26-397): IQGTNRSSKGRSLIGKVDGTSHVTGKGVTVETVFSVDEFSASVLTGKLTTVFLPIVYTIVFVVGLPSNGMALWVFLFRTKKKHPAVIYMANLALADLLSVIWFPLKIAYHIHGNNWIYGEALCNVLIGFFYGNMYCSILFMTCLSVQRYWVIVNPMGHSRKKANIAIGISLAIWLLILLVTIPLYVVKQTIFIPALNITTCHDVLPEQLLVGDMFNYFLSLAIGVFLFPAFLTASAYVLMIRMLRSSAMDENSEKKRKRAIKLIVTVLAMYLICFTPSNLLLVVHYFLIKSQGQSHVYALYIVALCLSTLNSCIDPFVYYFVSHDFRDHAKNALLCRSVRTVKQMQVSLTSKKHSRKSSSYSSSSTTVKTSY
Procedure, shortened: (§1)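 Antagonist-mode assay: dye-loaded HT-29 cells, compound 30 min at r.t., then stimulated with final 8 μM SLIGKV, 3.1 U/mL trypsin, 1 U/mL thrombin or 0.6 μM UTP; calcium fluorescence read.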

[2] = biological target: T2, PAR2 (HT-29 cells, trypsin activation) (Homo sapiens, UniProt P55085); experiment: Ca FLIPR TETRA assay, ANTAGONIST mode, stimulation with 3.1 U/mL trypsin; format: cell-based; conditions: HT-29 cells, stimulation with 3.1 U/mL trypsin
T2 construct: host or cells: HT-29 cells
T2 sequence (P55085 26-397): T1 sequence (P55085 26-397)
Procedure, shortened: as §1

[3] = system: Thrombin-stimulated Ca2+ response in HT-29 cells; experiment: Ca FLIPR TETRA assay, ANTAGONIST mode, stimulation with 1 U/mL Thrombin; format: cell-based, human; conditions: HT-29 cells, stimulation with 1 U/mL Thrombin
Procedure, shortened: as §1

[4] = system: UTP-stimulated Ca2+ response in HT-29 cells; experiment: Ca FLIPR TETRA assay, ANTAGONIST mode, stimulation with 0.6 μM UTP; format: cell-based, human; conditions: HT-29 cells, stimulation with 0.6 μM UTP
Procedure, shortened: as §1

Row | Structure (SMILES) | IC50 ([1]; antagonist mode) [nM] | IC50 ([2]; antagonist mode) [nM] | IC50 ([3]; Homo sapiens, antagonist mode) [nM] | IC50 ([4]; Homo sapiens, antagonist mode) [nM] | IC50 [1] [nM] | IC50 [2] [nM] | IC50 ([3]; Homo sapiens) [nM] | IC50 ([4]; Homo sapiens) [nM] | IC50 ([3]; antagonist mode) [nM] | IC50 ([4]; antagonist mode) [nM]
1 | Cc1cc(C(=O)N2CCN(C(=O)c3cn4nc(-c5ccc(F)c(Cl)c5)cc(C(C)(C)C)c4n3)C(C)(C)C2)[nH]n1 [Compound I-466] | 0.7 | 1.9 | > 1000 | > 1000 | – | – | – | – | – | –
2 | Cc1cc(C(=O)N2CCN(C(=O)c3cn4nc(-c5ccc(C(F)(F)F)cc5)cc(C(C)(C)C)c4n3)C(C)(C)C2)[nH]n1 [Compound I-402] | 0.8 | 1 | > 1000 | > 1000 | – | – | – | – | – | –
3 | CC(C)c1cc(C2=CCCC2)nn2cc(C(=O)N3CCN(C(=O)C4(O)CCC4)CC3(C)C)nc12 [Compound I-43, [6-(Cyclopenten-1-yl)-8-isopropyl-imidazo[1,2-b]pyridazin-2-yl]-[4-(1-hydroxycyclobutanecarbonyl)-2,2-dimethyl-piperazin-1-yl]methanone] | – | – | – | – | 480 | 1100 | 27000 | 31000 | – | –
4 | Cc1cc(-c2cc(C(C)(C)C)c3nc(C(=O)N4CCN(C(=O)C5CC(C)(O)C5)CC4(C)C)cn3n2)ccc1F (stereo not drawn) [Compound I-384] | 0.6 | 0.8 | > 1000 | > 1000 | – | – | – | – | – | –
5 | CC(C)(C)c1cc(C2CCC(F)(F)CC2)nn2cc(C(=O)N3CCN(c4cc[nH]n4)C(=O)C3(C)C)nc12 [Compound I-474] | 2.4 | 20 | > 1000 | > 1000 | – | – | – | – | – | –
6 | CC(C)c1cc(-c2ccc(C#N)cc2)nn2cc(C(=O)N3CCN(C(=O)C(C)(C)O)CC3(C)C)nc12 [Compound I-220] | 760 | 880 | > 1000 | > 1000 | – | – | – | – | – | –
7 | Cc1nnc(C(=O)N2CCN(C(=O)c3cn4nc(C5CCC(F)(F)CC5)cc(C(C)(C)C)c4n3)C(C)(C)C2)o1 [Compound I-461] | 14.8 | 39.8 | > 1000 | > 1000 | – | – | – | – | – | –
8 | CC(C)c1cc(-c2ccc(F)cc2)nn2cc(C(=O)N3CCN(C(=O)c4ccn[nH]4)CC3(C)C)nc12 [Compound I-239] | 3.2 | 6.4 | > 1000 | > 1000 | – | – | – | – | – | –
9 | CC(C)(C)c1cc(-c2ccc(Cl)c(F)c2)nn2cc(C(=O)N3CCNC(=O)C3(C)C)nc12 [Compound I-419] | 1.1 | 0.9 | > 1000 | > 1000 | – | – | – | – | – | –
10 | Cc1ccc(-c2cc(C(C)C)c3nc(C(=O)N4CCNC(=O)C4(C)C)cn3n2)cc1 [Compound I-242] | 5 | 7.7 | > 1000 | > 1000 | – | – | – | – | – | –
11 | COC(=O)[C@H]1CC[C@@H](C(=O)N2CCN(C(=O)c3cn4nc(-c5ccc(Cl)cc5)cc(C(C)C)c4n3)C(C)(C)C2)CC1 [Compound I-539] | 0.8 | 1.3 | > 1000 | > 1000 | – | – | – | – | – | –
12 | CC(C)(C)c1cc(-c2ccc(Cl)cc2)nn2cc(C(=O)N3CCN(C(=O)c4ncccn4)CC3(C)C)nc12 [Compound I-445] | 0.4 | 0.9 | > 1000 | > 1000 | – | – | – | – | – | –
13 | Cc1ccc(-c2cc(C(C)(C)C)c3nc(C(=O)N4CCNC(=O)C4(C)C)cn3n2)cc1 [Compound I-347] | 2.9 | 2.3 | > 1000 | > 1000 | – | – | – | – | – | –
14 | Cc1ccc(-c2cc(C(C)(C)C)c3nc(C(=O)N4CCN(C(=O)c5nnc(C)o5)CC4(C)C)cn3n2)cc1 [Compound I-393] | 1.6 | 1.5 | > 1000 | > 1000 | – | – | – | – | – | –
15 | CC(C)c1cc(-c2ccc(F)cc2)nn2cc(C(=O)N3CCN(C(=O)C4(N)CCCCC4)[C@@H](C)C3)nc12 [Compound I-156] | – | – | – | – | 1400 | 6800 | 21000 | 17000 | – | –
16 | CC(C)CC(O)C(=O)N1CCN(C(=O)c2cn3nc(-c4ccc(F)cc4)cc(C(C)C)c3n2)C[C@@H]1C (stereo partly drawn) [Compound I-109] | – | – | – | – | 0.9 | 4 | 11000 | 10000 | – | –
17 | CCC1(C)C(=O)NCCN1C(=O)c1cn2nc(-c3ccc(F)cc3)cc(C(C)C)c2n1 (stereo not drawn) [Compound I-179] | – | – | – | – | 3 | 11 | 6900 | 8500 | – | –
18 | COC(=O)C1CC(C(=O)N2CCN(C(=O)c3cn4nc(-c5ccc(Cl)cc5)cc(C(C)C)c4n3)C(C)(C)C2)C1 (stereo not drawn) [Compound I-545] | 1.1 | 1.9 | – | – | – | – | – | – | > 1000 | > 1000
19 | CC1(C)C(=O)NCCN1C(=O)c1cn2nc(-c3ccc(F)cc3)cc(-c3ccc(F)cc3)c2n1 [Compound I-523] | 12 | 9.6 | > 1000 | > 1000 | – | – | – | – | – | –
20 | CC(C)c1cc(-c2ccc(F)cc2)nn2cc(C(=O)N3CCN(c4nn[nH]n4)C(=O)C3(C)C)nc12 [Compound I-275] | 9.8 | 16.7 | > 1000 | > 1000 | – | – | – | – | – | –
21 | Cc1ccc(-c2cc(C(C)(C)C)c3nc(C(=O)N4CCN(C(=O)[C@H]5C[C@@](C)(O)C5)CC4(C)C)cn3n2)cc1 [Compound I-396] | 0.4 | 0.7 | > 1000 | > 1000 | – | – | – | – | – | –
22 | Cc1n[nH]c(C(=O)N2CCN(C(=O)c3cn4nc(-c5ccc(F)cc5)cc(C(C)C)c4n3)CC2)n1 [Compound I-552] | 720 | 720 | > 1000 | > 1000 | – | – | – | – | – | –
23 | Cc1ccc(-c2cc(C(C)(C)C)c3nc(C(=O)N4CCN(C(=O)c5cc(C)n[nH]5)CC4(C)C)cn3n2)cc1 [Compound I-395] | 0.6 | 0.5 | > 1000 | > 1000 | – | – | – | – | – | –
24 | CC(C)c1cc(-c2ccc(F)cc2)nn2cc(C(=O)N3CCN(C(=O)CCC4CCC4)[C@@H](C)C3)nc12 [Compound I-144] | – | – | – | – | 2 | 5 | 6600 | 5200 | – | –
25 | CC(C)(C)c1cc(-c2ccc(F)cc2)nn2cc(C(=O)N3CCN(C(=O)c4ccncc4)CC3(C)C)nc12 [Compound I-286] | 2.7 | 3.9 | 840 | > 1000 | – | – | – | – | – | –
26 | CC(C)c1cc(-c2ccc(C(F)(F)F)cc2)nn2cc(C(=O)N3CCN(C(=O)c4ccccn4)CC3(C)C)nc12 [Compound I-281] | 2.5 | 3.6 | > 1000 | > 1000 | – | – | – | – | – | –
27 | CC(C)c1cc(-c2ccc(F)cc2)nn2cc(C(=O)N3CCN(C(=O)C4(NC(=O)OC(C)(C)C)CCC4)[C@@H](C)C3)nc12 [Compound I-149] | – | – | – | – | 30 | 57 | > 50000 | > 50000 | – | –
28 | CN(C)C(=O)C(C)(C)c1cc(-c2ccc(F)cc2)nn2cc(C(=O)N3CCNC(=O)C3(C)C)nc12 [Compound I-192] | 575 | 8950 | > 50000 | > 50000 | – | – | – | – | – | –
29 | CC(CO)N1CCN(C(=O)c2cn3nc(-c4ccc(F)cc4)cc(C(C)(C)C)c3n2)C(C)(C)C1=O (stereo not drawn) [Compound I-233] | 5 | 6.8 | > 1000 | > 1000 | – | – | – | – | – | –
30 | C[C@H]1CN(C(=O)c2cn3nc(-c4ccc(F)cc4)ccc3n2)CCN1C(=O)[C@H](O)CC(C)(C)C [Compound I-13, (2R)-1-[(2S)-4-[6-(4-Fluorophenyl)imidazo[1,2-b]pyridazine-2-carbonyl]-2-methyl-piperazin-1-yl]-2-hydroxy-4,4-dimethyl-pentan-1-one] | – | – | – | – | 480 | 2400 | 13000 | 13000 | – | –
